Measured values published in patent US12037344B2, “NLRP3 modulators” (INNATE TUMOR IMMUNITY, INC., priority 2018, dated 2024).
Read-outs that look alike come from different tables or passages of the source.

How the values were obtained:
TLR8 = target: T1, TLR8 (Homo sapiens, UniProt Q9NR97); experiment: In vitro human TLR8 binding reporter assay (HEK-Blue, NF-kB/AP1-inducible SEAP); type: cell-based; details: read-out: TLR8 Agonist EC50
T1 construct: human HEK-Blue cells co-expressing a TLR7 or TLR8 gene
T1 sequence (Q9NR97 27-1041): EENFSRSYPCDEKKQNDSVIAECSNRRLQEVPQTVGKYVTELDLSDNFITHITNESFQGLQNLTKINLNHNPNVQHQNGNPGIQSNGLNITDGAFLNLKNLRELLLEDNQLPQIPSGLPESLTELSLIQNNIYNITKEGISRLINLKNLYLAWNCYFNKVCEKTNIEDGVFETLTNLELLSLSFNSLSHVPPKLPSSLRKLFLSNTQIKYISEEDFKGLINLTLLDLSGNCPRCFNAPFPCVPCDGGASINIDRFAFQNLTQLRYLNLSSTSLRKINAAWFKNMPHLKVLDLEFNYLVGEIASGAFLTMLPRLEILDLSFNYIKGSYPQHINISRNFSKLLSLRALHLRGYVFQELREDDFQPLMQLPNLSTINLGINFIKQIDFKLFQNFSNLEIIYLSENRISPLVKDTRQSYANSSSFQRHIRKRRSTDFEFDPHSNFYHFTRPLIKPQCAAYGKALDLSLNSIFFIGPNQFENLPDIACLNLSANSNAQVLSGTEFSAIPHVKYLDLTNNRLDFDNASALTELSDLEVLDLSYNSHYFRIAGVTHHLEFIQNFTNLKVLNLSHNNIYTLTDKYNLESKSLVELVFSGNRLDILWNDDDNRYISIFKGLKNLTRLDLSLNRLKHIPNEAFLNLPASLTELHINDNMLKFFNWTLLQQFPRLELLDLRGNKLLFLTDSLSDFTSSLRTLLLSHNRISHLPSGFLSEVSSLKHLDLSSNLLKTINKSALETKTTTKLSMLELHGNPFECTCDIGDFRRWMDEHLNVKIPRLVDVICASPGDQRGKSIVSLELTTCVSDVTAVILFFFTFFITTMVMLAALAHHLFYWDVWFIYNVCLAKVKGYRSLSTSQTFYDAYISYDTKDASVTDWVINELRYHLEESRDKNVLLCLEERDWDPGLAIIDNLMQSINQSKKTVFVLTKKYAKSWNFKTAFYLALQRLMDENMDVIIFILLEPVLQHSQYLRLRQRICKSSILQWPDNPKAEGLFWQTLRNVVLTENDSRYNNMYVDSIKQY
Description: (§1) In Vitro Human TLR7 and TLR8 Binding Reporter Assays
(§2) Logarithmically-growing human HEK-Blue cells co-expressing a TLR7 or TLR8 gene and a NF-kB/AP1-inducible SEAP (secreted embryonic alkaline phosphatase; Invivogen, San Diego, CA) reporter gene are added to individual wells of a 384-well plate (15,000 cells per 20 μL per well) and maintained for 24 h at 37° C., 5% CO2. Test compounds or DMSO are distributed to separate wells the next day using acoustic liquid handling technology (100 nL per well) and cells are subsequently incubated for 18 h at 37° C., 5% CO2. Cellular SEAP production is measured using an Envision plate reader instrument thirty minutes after adding freshly-made Quanti-Blue reagent (prepared by following manufacturer instructions; Invivogen, San Diego, CA) to the HEK-Blue TLR Nf-kB-SEAP cell reactions. All EC50 values (half-maximal effective concentration) are determined using proprietary data analysis software. Normalized EC50 value=absolute value determined by setting 100% Ymax using a reference standard RLU (relative light unit) values from cells treated with 50 μM of the reference standard.

THP-1 cells = experiment: Measurement of IL-1β production, hTRF protocol (second alternative procedure), THP-1 cells; type: cell-based, human; details: read-out: NLRP3 hILIB EC50
Description: Measurement of IL-1β Production—hTRF Protocol (Second Alternative Procedure)
Serial dilutions of compounds in DMSO were added to low volume 384 well plates at 100 nl/well using an ECHO 550 acoustic dispenser (Labcyte) to achieve final starting concentration of 10 μM in assay.
THP-1 cells in RPMI (Gibco, 11875) media with 10% FBS at a density of 1×10^6 cell/ml in a T175 flask were treated with a final concentration of phorbol 12-myristate 13-acetate (PMA) (Sigma, P1585) of 50 ng/ml overnight at 37° C. at 5% CO2 for differentiation. Cells were harvested the next day after rinsing well with dPBS using 0.5% trypsin. A cell solution was prepared of 1×10^6 cells/ml for 50,000 cells in 50 μl/well in RPMI media with 2% FBS. Cells were plated using a multichannel pipette onto the compound dilutions in Greiner, 384 well, black clear bottom tissue culture treated plates (781090). The plates were incubated in 37° C. incubator at 5% CO2 for 2 hours.
After the 2 hour incubation, the cell plates were spun in the centrifuge for 5 minutes at 1200 rpm. Using the Felix (CyBio), 8 μl of the supernatant was transferred to 384 well, low volume, white proxy plates. (Perkin Elmer, 6008230). A human IL1beta hTRF kit was used to analyze the supernatant (CISBIO, 62HIL1BPEG). The kit instructions were followed for preparing the IL1Beta standard curve and then the antibodies from the kit were diluted 1:40 rather than 1:20 as kit instructed. Once combined, the antibodies were added across the plates, 5 μl/well. The plates were sealed and incubated at 4° C. overnight. The plates were then read on the Perkin Elmer EnVision at 665/615 nm using the hTRF laser.

TLR7 = target: T2, TLR7 (Homo sapiens, UniProt Q9NYK1); experiment: In vitro human TLR7 binding reporter assay (HEK-Blue, NF-kB/AP1-inducible SEAP); type: cell-based; details: read-out: TLR7 Agonist EC50
T2 construct: human HEK-Blue cells co-expressing a TLR7 or TLR8 gene
T2 sequence (Q9NYK1 27-1049): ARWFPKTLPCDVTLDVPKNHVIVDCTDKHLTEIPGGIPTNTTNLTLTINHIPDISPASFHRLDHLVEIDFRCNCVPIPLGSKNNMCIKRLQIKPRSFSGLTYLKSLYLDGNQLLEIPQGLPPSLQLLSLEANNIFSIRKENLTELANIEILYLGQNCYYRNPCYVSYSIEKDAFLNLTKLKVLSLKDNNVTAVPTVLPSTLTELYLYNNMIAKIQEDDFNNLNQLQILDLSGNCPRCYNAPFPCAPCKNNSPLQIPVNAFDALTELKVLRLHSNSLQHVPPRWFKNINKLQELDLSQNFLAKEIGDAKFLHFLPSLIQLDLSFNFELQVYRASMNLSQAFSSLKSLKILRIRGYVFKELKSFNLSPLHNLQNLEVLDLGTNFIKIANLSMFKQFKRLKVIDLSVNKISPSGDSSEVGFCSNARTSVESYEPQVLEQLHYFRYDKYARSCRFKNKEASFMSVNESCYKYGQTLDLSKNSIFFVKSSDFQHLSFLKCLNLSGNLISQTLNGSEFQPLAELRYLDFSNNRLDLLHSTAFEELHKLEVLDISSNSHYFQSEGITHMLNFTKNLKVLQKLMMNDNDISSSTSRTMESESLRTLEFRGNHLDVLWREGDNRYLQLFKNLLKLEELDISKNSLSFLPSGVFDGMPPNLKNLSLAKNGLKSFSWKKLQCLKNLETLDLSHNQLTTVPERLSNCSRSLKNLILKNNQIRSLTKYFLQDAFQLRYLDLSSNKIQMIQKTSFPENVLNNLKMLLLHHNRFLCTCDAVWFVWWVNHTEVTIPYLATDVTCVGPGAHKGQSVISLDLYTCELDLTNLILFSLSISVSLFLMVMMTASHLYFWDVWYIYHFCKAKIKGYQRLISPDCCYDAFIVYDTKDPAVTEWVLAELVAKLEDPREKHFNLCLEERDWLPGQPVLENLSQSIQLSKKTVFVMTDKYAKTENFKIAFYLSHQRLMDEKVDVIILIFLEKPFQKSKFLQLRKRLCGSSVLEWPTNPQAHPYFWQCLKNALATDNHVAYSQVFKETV
Description: as §1, §2

[1] = Homo sapiens, THP-1, IL-1β production, human
[2] = Homo sapiens, THP-1, IL-1β production, human cells

| Compound | EC50 (TLR8; activity range class) | EC50 (THP-1 cells; [1]) | EC50 (TLR7; activity range class) | also measured |
| --- | --- | --- | --- | --- |
| CC(O)Cn1cc2c(N)nc3cc(-c4ccn[nH]4)ccc3c2n1 (centres unmarked) [Example 282] | > 100 µM | 100 nM | > 100 µM | – |
| Nc1nc2cc(-c3cc[nH]n3)ccc2c2cn(CCCOc3ccccc3F)nc12 [Example 7] | > 100 µM | 420 nM | > 100 µM | – |
| CS(=O)(=O)CCCn1cc2c(N)nc3cc(-n4cccn4)ccc3c2n1 [Example 387] | > 100 µM | 2300 nM | > 100 µM | – |
| Nc1nc2cc(-c3cc[nH]n3)ccc2c2nn(CC3(CO)CC3)cc12 [Example 353] | > 100 µM | 610 nM | > 100 µM | – |
| CN(C)CCn1nc2c(N)nc3cc(-c4ccn[nH]4)ccc3c2n1 [Example 161] | > 100 µM | 5820 nM | > 100 µM | – |
| Nc1nc2cc(-n3cccn3)ccc2c2nn(CCO)cc12 [Example 249, 2-(4-amino-7-(1H-pyrazol-1-yl)-2H-pyrazolo[4,3-c]quinolin-2-yl)ethan-1-ol] | > 100 µM | 640 nM | > 100 µM | – |
| CC(C)(O)CCn1ncc2c(N)nc3cc(-c4cc[nH]n4)ccc3c21 [Example 427] | – | – | – | EC50 (TLR8; activity range): > 100 µM; EC50 (THP-1 cells; [2]): 2010 nM; EC50 (TLR7; activity range): > 100 µM |
| CC1(O)CCCC1n1cc2c(N)nc3cc(-c4cc[nH]n4)ccc3c2n1 (centres unmarked) [Example 343] | > 100 µM | 610 nM | > 100 µM | – |
| Nc1nc2cc(-c3cc[nH]n3)ccc2c2cn(CC(=O)N[C@@H]3CCOC3)nc12 [Example 544] | – | – | – | EC50 (TLR8; activity range): > 100 µM; EC50 (THP-1 cells; IL-1β production, human cells): 4360 nM; EC50 (TLR7; activity range): > 100 µM |
| CC(C)(Cn1cc2c(N)nc3cc(-c4ccn[nH]4)ccc3c2n1)C(=O)N1CC(F)(F)C1 [Example 599] | – | – | – | EC50 (TLR8; activity range): > 100 µM; EC50 (THP-1 cells; [2]): 2180 nM; EC50 (TLR7; activity range): > 100 µM |
| Nc1nc2cc(-c3ccn[nH]3)ccc2c2nn(CCN3CCOCC3)cc12 [Example 260] | > 100 µM | 5760 nM | > 100 µM | – |
| Nc1nc2cc(-c3cc[nH]n3)ccc2c2nn(CCCOC(F)(F)F)cc12 [Example 350] | > 100 µM | 350 nM | > 100 µM | – |
| Nc1nc2cc(-c3cc[nH]n3)ccc2c2cn(CCCNC(=O)c3ccc(F)cn3)nc12 [Example 125] | > 100 µM | 8340 nM | > 100 µM | – |
| Cc1cc(C)n(CCn2cc3c(n2)c(N)nc2cc(-n4cccn4)ccc23)n1 [Example 12] | 20 to 100 µM | 1520 nM | 20 to 100 µM | – |
| Nc1nc2cc(-c3cc[nH]n3)ccc2c2nn(C3CCCC3O)cc12 (single isomer, unassigned) [Example 315] | > 100 µM | – | > 100 µM | EC50 (THP-1 cells; IL-1β production, human): 890 nM |
| CCCn1cc2c(n1)c(N)nc1cc(-c3ccn[nH]3)ccc12 [Example 187] | > 100 µM | 220 nM | > 100 µM | – |
| COC(C)Cn1cc2c(N)nc3cc(-c4cc[nH]n4)ccc3c2n1 (single isomer, unassigned) [Example 347] | > 100 µM | – | > 100 µM | EC50 (THP-1 cells; IL-1β production, human): 300 nM |
| Nc1nc2cc(-c3cc[nH]n3)ccc2c2cn(CCCOc3ccccc3)nc12 [Example 2, 2-(3-phenoxypropyl)-7-(1H-pyrazol-3-yl)-2H-pyrazolo[3,4-c]quinolin-4-amine] | 20 to 100 µM | 430 nM | 20 to 100 µM | – |
| Nc1nc2cc(-c3cc[nH]n3)ccc2c2nn(CC3CCOC3)cc12 (single isomer, unassigned) [Example 327] | > 100 µM | 700 nM | > 100 µM | – |
| Nc1nc2cc(-c3cc[nH]n3)ccc2c2nn(CC3CCOC3)cc12 (single isomer, unassigned) [Example 328] | > 100 µM | – | > 100 µM | EC50 (THP-1 cells; IL-1β production, human): 1350 nM |
| Nc1nc2cc(-c3cc[nH]n3)ccc2c2c1cnn2CCN1CC(F)(F)C1 [Example 430] | – | – | – | EC50 (TLR8; activity range): > 100 µM; EC50 (THP-1 cells; [2]): 1900 nM; EC50 (TLR7; activity range): > 100 µM |
| Nc1nc2cc(-n3cccn3)ccc2c2cn(CCNC(=O)c3ccc(F)cn3)nc12 [Example 184] | – | 100 nM | > 100 µM | – |
| Nc1nc2cc(-c3ccn[nH]3)ccc2c2oc(CCCOCc3ccccc3)nc12 [Example 146, 2-[3-(benzyloxy)propyl]-7-(1H-pyrazol-3-yl)-[1,3]oxazolo[4,5-c]quinolin-4-amine] | – | 7940 nM | – | – |
| Nc1nc2cc(-c3cc[nH]n3)ccc2c2cc(CCCO)oc12 [Example 148, 3-[4-amino-7-(1H-pyrazol-3-yl)furo[2,3-c]quinolin-2-yl]propan-1-ol] | – | 2030 nM | – | – |
| NCCc1cc2c(N)nc3cc(-c4ccn[nH]4)ccc3c2[nH]1 [Example 152, 2-(2-aminoethyl)-7-(1H-pyrazol-5-yl)-1H-pyrrolo[3,2-c]quinolin-4-amine] | – | 3790 nM | – | – |
